Source: PMC9502897, “Design, Synthesis and Structure—Activity Relationships of Phenylalanine-Containing Peptidomimetics as Novel HIV-1 Capsid Binders Based on Ugi Four-Component Reaction” (Molecules, 2022)

Tests used:
HIV-1 = assay: Anti-HIV-1 activity in MT-4 cells (MTT method); type: cell-based; details: for EC50: MT-4 cells, 50% protection against HIV-induced cytopathicity, MTT method; for anti-HIV activity: R2 1-methylnaphthalene replaced by 2-methylnaphthalene, HIV-1/HIV-2, MT-4 cells
Method: (§1) The evaluation of the antiviral activity of the compounds against HIV in MT-4 cells was performed using the MTT assay as described below. Stock solutions (10 × final concentration) of test compounds were added in 25 μL volumes to two series of triplicate wells to allow simultaneous evaluation of their effects on mock- and HIV-infected cells at the beginning of each experiment. Serial 5-fold dilutions of test compounds were made directly in flat-bottomed 96-well microtiter trays using a Biomek 3000 robot (Beckman Instruments, Fullerton, CA). Untreated HIV- and mock-infected cell samples were included as controls. HIV stock ([…]) at 100–300 CCID50 (50% cell culture infectious doses) or culture medium was added to either the infected or mock-infected wells of the microtiter tray. Mock-infected cells were used to evaluate the effects of the test compound on uninfected cells to assess the test compounds’ cytotoxicity. Exponentially growing MT-4 cells were centrifuged for 5 min at 220 g, and the supernatant was discarded. The MT-4 cells were resuspended at 6 × 10^5 cells/mL, and 50 μL volumes were transferred to the microtiter tray wells. Five days after infection, the viability of mock- and HIV-infected cells was examined spectrophotometrically using the MTT assay. The MTT assay is based on the reduction of yellow-colored 3-(4,5-dimethylthiazol-2-yl)-2,5-diphenyltetrazolium bromide (MTT) (Acros Organics) by mitochondrial dehydrogenase activity in metabolically active cells to a blue-purple formazan that can be measured spectrophotometrically. The absorbances were read in an eight-channel computer-controlled photometer (Infinite M1000, Tecan) at two wavelengths (540 and 690 nm). All data were calculated using the median absorbance value of three wells.

HIV-2 = assay: Anti-HIV-2 activity in MT-4 cells (MTT method); type: cell-based
Method: as §1

MT-4 cells = assay: in vitro
Method: as §1

in vitro = details: human
Method: as §1

HIV-1 NL4-3 CA monomer = molecular target: T1, HIV-1 NL4-3 CA monomer (Human immunodeficiency virus type 1 group M subtype B, UniProt P12493); assay: biochemical; type: binding; details: SPR
T1 construct: the HIV-1 NL4-3 capsid protein constructs; His6 (C); made in house; host or cells: E. coli BL21-Codon Plus (DE3)-RIL

HIV-1 NL4-3 CA hexamer = HIV-1 NL4-3 CA hexamer (Human immunodeficiency virus type 1 group M subtype B, UniProt P12493, A146C/E177C/M317A/W316A); assay: SPR binding to disulfide-stabilized NL4-3 CA hexamer
HIV = details: moderate activity; cited from earlier work
[1] = metabolic stability; cited from earlier work
[2] = Human immunodeficiency virus 1, MT4
[3] = Human immunodeficiency virus 2, MT4, 50% protection against HIV-induced cytopathicity
[4] = 50% protection against HIV-induced cytopathicity

| Compound | EC50 (HIV-1; [2]) [µM] | EC50 (HIV-2; [3]) [µM] | CC50 (MT-4 cells; human, 5 days) [µM] | further results |
| --- | --- | --- | --- | --- |
| COc1ccc(N(C)C(=O)[C@H](Cc2cc(F)cc(F)c2)NC(=O)CN(Cc2ccc(F)cc2)C(=O)Cc2ccc3ccccc3c2)cc1 [I-6, (S)-3-(3,5-difluorophenyl)-2-(2-(N-(4-fluorobenzyl)-2-(naphthalen-2-yl)acetamido)acetamido)-N-(4-methoxyphenyl)-N-methylpropanamide] | > 160 | > 160 | > 160 | anti-HIV activity (HIV-1): lost |
| COc1ccc(N(C)C(=O)[C@H](Cc2cc(F)cc(F)c2)NC(=O)CN(Cc2ccc(F)cc2)C(=O)Cc2c(C)[nH]c3ccccc23)cc1 [I-7, (S)-3-(3,5-difluorophenyl)-2-(2-(N-(4-fluorobenzyl)-2-(2-methyl-1H-indol-3-yl)acetamido)acetamido)-N-(4-methoxyphenyl)-N-methylpropanamide] | 2.79 ± 0.19 | > 22.6 | 22.6 ± 0.96 | – |
| COc1ccc(N(C)C(=O)[C@H](Cc2cc(F)cc(F)c2)NC(=O)CN(Cc2ccc(F)cc2)C(=O)Cc2cccc3ccccc23)cc1 [I-8, (S)-3-(3,5-difluorophenyl)-2-(2-(N-(4-fluorobenzyl)-2-(naphthalen-1-yl)acetamido)acetamido)-N-(4-methoxyphenyl)-N-methylpropanamide] | > 191 | 5.87 ± 1.79 | > 191 | – |
| COc1ccc(N(C)C(=O)[C@H](Cc2cc(F)cc(F)c2)NC(=O)CN(Cc2ccc(F)cc2)C(=O)Cc2c[nH]c3ccc(Br)cc23)cc1 [I-9, (S)-2-(2-(2-(5-bromo-1H-indol-3-yl)-N-(4-fluorobenzyl)acetamido)acetamido)-3-(3,5-difluorophenyl)-N-(4-methoxyphenyl)-N-methylpropanamide] | 2.93 ± 0.32 | > 17.8 | 17.8 ± 1.04 | – |
| COc1ccc(N(C)C(=O)[C@H](Cc2cc(F)cc(F)c2)NC(=O)CN(CC2CCCCC2)C(=O)Cc2c[nH]c3ccc(Br)cc23)cc1 [I-10, (S)-2-(2-(2-(5-bromo-1H-indol-3-yl)-N-(cyclohexylmethyl)acetamido)acetamido)-3-(3,5-difluorophenyl)-N-(4-methoxyphenyl)-N-methylpropanamide] | > 17.6 | > 17.6 | 17.6 ± 2.41 | – |
| COc1ccc(N(C)C(=O)[C@H](Cc2cc(F)cc(F)c2)NC(=O)CN(Cc2ccc(F)cc2)C(=O)Cc2ccc(B3OC(C)(C)C(C)(C)O3)cc2)cc1 [I-12, (S)-3-(3,5-difluorophenyl)-2-(2-(N-(4-fluorobenzyl)-2-(4-(4,4,5,5-tetramethyl-1,3,2-dioxaborolan-2-yl)phenyl)acetamido)acetamido)-N-(4-methoxyphenyl)-N-methylpropanamide] | 11.7 ± 2.07 | 13.2 ± 2.6 | 65.4 ± 16.8 | – |
| COc1ccc(N(C)C(=O)[C@H](Cc2cc(F)cc(F)c2)NC(=O)CN(Cc2ccc(C#N)cc2)C(=O)Cc2ccc3ccccc3c2)cc1 [I-13, (S)-2-(2-(N-(4-cyanobenzyl)-2-(naphthalen-2-yl)acetamido)acetamido)-3-(3,5-difluorophenyl)-N-(4-methoxyphenyl)-N-methylpropanamide] | > 189 | 161 ± 26 | > 189 | anti-HIV activity (HIV-1): lost |
| COc1ccc(N(C)C(=O)[C@H](Cc2cc(F)cc(F)c2)NC(=O)CN(Cc2ccc(C#N)cc2)C(=O)Cc2cccc3ccccc23)cc1 [I-14, (S)-2-(2-(N-(4-cyanobenzyl)-2-(naphthalen-1-yl)acetamido)acetamido)-3-(3,5-difluorophenyl)-N-(4-methoxyphenyl)-N-methylpropanamide] | > 189 | 2.3 ± 0.11 | > 189 | – |
| COc1ccc(N(C)C(=O)[C@H](Cc2cc(F)cc(F)c2)NC(=O)CN(Cc2ccc(C#N)cc2)C(=O)Cc2ccc(B3OC(C)(C)C(C)(C)O3)cc2)cc1 [I-17, (S)-2-(2-(N-(4-cyanobenzyl)-2-(4-(4,4,5,5-tetramethyl-1,3,2-dioxaborolan-2-yl)phenyl)acetamido)acetamido)-3-(3,5-difluorophenyl)-N-(4-methoxyphenyl)-N-methylpropanamide] | 17.7 ± 4.6 | 16.2 ± 4.59 | 52.4 ± 14.2 | – |
| COc1ccc(N(C)C(=O)[C@H](Cc2cc(F)cc(F)c2)NC(=O)CN(C(=O)Cc2ccc(B3OC(C)(C)C(C)(C)O3)cc2)C2CC2)cc1 [I-18, (S)-2-(2-(N-cyclopropyl-2-(4-(4,4,5,5-tetramethyl-1,3,2-dioxaborolan-2-yl)phenyl)acetamido)acetamido)-3-(3,5-difluorophenyl)-N-(4-methoxyphenyl)-N-methylpropanamide] | 5.18 ± 1.11 | 9.71 ± 0.8 | 89 ± 17.1 | – |
| COc1ccc(N(C)C(=O)[C@H](Cc2cc(F)cc(F)c2)NC(=O)CN(Cc2ccc(F)cc2)C(=O)Cn2nc(C(F)(F)F)c3c2CCCC3)cc1 [I-19, (S)-3-(3,5-difluorophenyl)-2-(2-(N-(4-fluorobenzyl)-2-(3-(trifluoromethyl)-4,5,6,7-tetrahydro-1H-indazol-1-yl)acetamido)acetamido)-N-(4-methoxyphenyl)-N-methylpropanamide] | 2.53 ± 0.84 | 12.9 ± 3.72 | – | CC50 at 5 days (in vitro; CC50): 108 ± 27.4 µM; Ratio KD (monomer)/KD(hexamer) (HIV-1 NL4-3 CA monomer): 0.36; Koff Monomer (HIV-1 NL4-3 CA monomer; 1:1 binding model): 0.0301 ± 0.0172 S^−1; Kon Monomer (HIV-1 NL4-3 CA monomer; 1:1 binding model): 4160 ± 1670 M^−1S^−1; Kd (HIV-1 NL4-3 CA monomer; 25 °C, at least 3 replicates): 13.3 µM; Koff Hexamer (HIV-1 NL4-3 CA hexamer; 1:1 binding model): 0.00758 ± 0.000504 S^−1; Kon Hexamer (HIV-1 NL4-3 CA hexamer; 1:1 binding model): 628 ± 152 M^−1S^−1; Kd (HIV-1 NL4-3 CA hexamer; 25 °C, at least 3 replicates): 36.9 µM; melting point: 46 to 48 °C |
| COc1ccc(N(C)C(=O)[C@H](Cc2cc(F)cc(F)c2)NC(=O)CN(CC2CCCCC2)C(=O)Cn2nc(C(F)(F)F)cc2C)cc1 [I-20, (S)-2-(2-(N-(cyclohexylmethyl)-2-(5-methyl-3-(trifluoromethyl)-1H-pyrazol-1-yl)acetamido)acetamido)-3-(3,5-difluorophenyl)-N-(4-methoxyphenyl)-N-methylpropanamide] | 30.3 ± 3.24 | 24.9 ± 12 | 45.7 ± 5.36 | – |
| COc1ccc(N(C)C(=O)[C@H](Cc2cc(F)cc(F)c2)NC(=O)CN(Cc2ccccc2)C(=O)Cc2c(C)[nH]c3ccccc23)cc1 [I-21, (S)-2-(2-(N-benzyl-2-(2-methyl-1H-indol-3-yl)acetamido)acetamido)-3-(3,5-difluorophenyl)-N-(4-methoxyphenyl)-N-methylpropanamide] | 2.77 ± 0.77 | 6.52 ± 0.6 | 28.6 ± 0.86 | – |
| COc1ccc(N(C)C(=O)[C@H](Cc2cc(F)cc(F)c2)NC(=O)CN(Cc2ccccc2)C(=O)Cc2ccc3ccccc3c2)cc1 [I-22, (S)-2-(2-(N-benzyl-2-(naphthalen-2-yl)acetamido)acetamido)-3-(3,5-difluorophenyl)-N-(4-methoxyphenyl)-N-methylpropanamide] | > 176 | > 18.9 | 176 ± 7.35 | – |
| COc1ccc(N(C)C(=O)[C@H](Cc2cc(F)cc(F)c2)NC(=O)CN(Cc2ccc(F)cc2)C(=O)Cc2ccc(B(O)O)cc2)cc1 [I-23, (S)-(4-(2-((2-((3-(3,5-difluorophenyl)-1-((4-methoxyphenyl)(methyl)amino)-1-oxopropan-2-yl)amino)-2-oxoethyl)(4-fluorobenzyl)amino)-2-oxoethyl)phenyl) boronic acid] | 4.33 ± 1.32 | 6.8 ± 0.36 | 18.9 ± 3.59 | – |
| Cc1ccnc2c1NC(=O)c1cccnc1N2C1CC1 [NVP, nevirapine, reference compound] | – | > 15 | – | CC50 at 5 days (in vitro; mock-infected (uninfected) MT-4 cells, CC50, uninfected MT-4 cells, viability reduced by 50%, MTT method): > 15.2 µM; CC50 (MT-4 cells; uninfected MT-4 cells, viability reduced by 50%, MTT method): > 15 µM |
| Cc1[nH]c2ccccc2c1CC(=O)NC(Cc1ccccc1)C(=O)N(C)c1ccccc1 (stereo not shown) [PF-74, reference compound] | 0.26 ± 0.08 | > 2.22 | – | EC50 (HIV-2; [4]): 2.22 ± 0.31 µM; CC50 at 5 days (in vitro; CC50): 73.8 ± 7.54 µM; EC50 (HIV): 0.52 to 0.9 µM; T1/2 [1]: 30 to 78 s |
| (S)-2-(2-(2-(5-bromo-2-methyl-1H-indol-3-yl)-N-(4-cyanobenzyl)acetamido)acetamido)-3-(3,5-difluorophenyl)-N-(4-methoxyphenyl)-N-methylpropanamide [I-16] | – | – | – | EC50 (HIV-1): 5.61 ± 1.18 µM; EC50 (HIV-2; [4]): 15.7 ± 13.3 µM; CC50 (MT-4 cells): 87.6 ± 62.2 µM |
| (S)-2-(2-(N-(4-cyanobenzyl)-2-(5-fluoro-2-methyl-1H-indol-3-yl)acetamido)acetamido)-3-(3,5-difluorophenyl)-N-(4-methoxyphenyl)-N-methylpropanamide [I-15] | – | – | – | EC50 (HIV-1): 17.2 ± 9.98 µM; EC50 (HIV-2; [4]): 5.81 ± 1.11 µM; CC50 (MT-4 cells): 148 ± 16.6 µM |
